In US20230346775A1, “CANCER TREATMENT WITH TLR AGONIST” (BIRDIE BIOPHARMACEUTICALS, INC., priority 2020, published 2023):

Assays:
Assay type in all cases: in vivo, human
advanced solid cancers [1] = test: Clinical benefit (RECIST 1.1) versus AUC/Cmax, Compound A monotherapy
Excerpt: (§1) Clinical benefit was defined as radiographic complete response, partial response or stable disease >18 weeks based on Response Evaluation Criteria in Solid Tumors (RECIST) version 1.1.

[2] = as above; conditions: human, plasma, intravenous, Cmax of Compound A free base associated with greater likelihood of clinical benefit
Excerpt: as §1

IP-10 = test: Plasma IP-10 induction from baseline (MSD cytokine assay); conditions: for mean IP-10 induction level from baseline: 16 patients, Cycle 1
Method: (§2) Pharmacodynamic analysis of Compound A included cytokine quantification and whole-blood RNA transcriptional profiling. Collected plasma samples were quantified for cytokine biomarkers implicated in inflammatory responses, immune system regulation, and other biological processes. Assays for cytokine quantification were performed by Frontage Laboratories, Inc. utilizing Meso Scale Discovery (MSD) V-PLEX and U-PLEX plates pre-coated with capture antibodies for IL-5, IL-17A, IFN-γ, IL-2, IL-6, IL-8, IL-10, IL-12p70, TNF-α, IFN-α, IFN-β, and IP-10. Plasma samples were added directly to the plate to allow the analytes in the samples to bind to the capture antibodies. Electrochemiluminiscent label (MSD SOLFO-TAG™)-conjugated detection antibodies were then added to visualize the plates by a MSD plate reader. The luminescence intensity was measured to quantify the amount of captured analytes (or cytokine levels) in each sample. […] Plasma samples were collected at Cycle 1, Cycle 3, and Cycle 6. Of the cytokines quantified, IP-10, IFN-γ, IL-6, IL-8, IL-10, and TNF-α had detectable levels. […] The greater peak cytokine level from either Cycle 1 Days 1 or 8 were selected for the analysis to be inclusive of all subjects. […] Response was defined by best overall response—immune-related partial response (irPR), immune-related stable disease (irSD) with study duration over or under 18 weeks, and unconfirmed immune-related progressive disease (uirPD). Clinical benefit was defined as either partial response (irPR) or irSD >18 weeks. […] For example, patient A dosed with dose level 2 with slower metabolism may have higher AUC and/or Cmax than patient B who was dosed with dose level 3, as a result patient A may produce higher level of IP-10 induction from baseline.

[3] = as above; conditions: human, plasma, intravenous; read-out: minimum Cmax required to induce enough IP-10 that results in clinical benefit
Method: as §2

IFN-γ = test: Plasma IFN-γ induction from baseline (MSD cytokine assay); conditions: monotherapy, data not shown
Method: Pharmacodynamic analysis of Compound A included cytokine quantification and whole-blood RNA transcriptional profiling.
Collected plasma samples were quantified for cytokine biomarkers implicated in inflammatory responses, immune system regulation, and other biological processes. Assays for cytokine quantification were performed by Frontage Laboratories, Inc. utilizing Meso Scale Discovery (MSD) V-PLEX and U-PLEX plates pre-coated with capture antibodies for IL-5, IL-17A, IFN-γ, IL-2, IL-6, IL-8, IL-10, IL-12p70, TNF-α, IFN-α, IFN-β, and IP-10. Plasma samples were added directly to the plate to allow the analytes in the samples to bind to the capture antibodies. Electrochemiluminiscent label (MSD SOLFO-TAG™)-conjugated detection antibodies were then added to visualize the plates by a MSD plate reader. The luminescence intensity was measured to quantify the amount of captured analytes (or cytokine levels) in each sample.
Plasma samples were collected at Cycle 1, Cycle 3, and Cycle 6. Of the cytokines quantified, IP-10, IFN-γ, IL-6, IL-8, IL-10, and TNF-α had detectable levels. […] The greater peak cytokine level from either Cycle 1 Days 1 or 8 were selected for the analysis to be inclusive of all subjects.

[4] = Phase 1 pharmacokinetics: Compound A free base in plasma after intravenous infusion
Excerpt: (§3) A treatment cycle is 21 days with 3 weekly infusions on days 1, 8, and 15.
The Mosteller Formula was used: BSA=√height (cm)×weight (kg)/3600.

advanced solid cancers [5] = test: Clinical benefit (RECIST 1.1) versus AUC/Cmax, Compound A in combination with atezolizumab; conditions: combination with atezolizumab
Excerpt: as §1

[6] = as above; conditions: human, plasma, combination with anti-PD-L1 mAb (atezolizumab)
Excerpt: as §1

[7] = test system: unresectable or metastatic solid tumors; test: Efficacy of Compound A salt monotherapy, best response by irRECIST; conditions: for patients with clinical benefit (irPR or irSD>18 weeks): 16 patients
Method: as §3
Response was defined by best overall response—immune-related partial response (irPR), immune-related stable disease (irSD) with study duration over or under 18 weeks, and unconfirmed immune-related progressive disease (uirPD). Clinical benefit was defined as either partial response (irPR) or irSD >18 weeks. IP-10 cytokine induction levels of 32 patients evaluable for efficacy, were analyzed with respect to dosage in Cycle 1.

[8] = Phase 1 safety, drug-related adverse events, Compound A monotherapy
Excerpt: Toxicities and adverse events are sometimes graded according to a 5-point scale. A grade 1 or mild toxicity is asymptomatic or induces only mild symptoms; may be characterized by clinical or diagnostic observations only; and intervention is not indicated. A grade 2 or moderate toxicity may impair activities of daily living (such as preparing meals, shopping, managing money, using the telephone, etc.) but only minimal, local, or non-invasive interventions are indicated. Grade 3 toxicities are medically significant but not immediately life-threatening; hospitalization or prolongation of hospitalization is indicated; activities of daily living related to self-care (such as bathing, dressing and undressing, feeding oneself, using the toilet, taking medications, and not being bedridden) may be impaired. Grade 4 toxicities are life-threatening and urgent intervention is indicated. Grade 5 toxicity produces an adverse event-related death.
as §3
Most common drug-related AE's were associated with immune activation.

advanced solid cancers [9] = test: Clinical benefit (RECIST 1.1) versus AUC/Cmax, Compound A in combination with pembrolizumab; conditions: combination with pembrolizumab
Excerpt: as §1

[10] = as above; conditions: human, combination with anti-PD-1 mAb (pembrolizumab)
Excerpt: as §1

[11] = IP-10 induction, >5-fold increase (n = 17)
[12] = No IP-10 induction, <5-fold increase (n = 19)

- Cmax [2]: ≥ 8.38 ng/mL
- Cmax [3]: ≥ 9.4 ng/mL
- Compound A free base exposure versus dose ([4]; five escalating dosages 0.30-0.90 mg/m^2 intravenously): dose-dependent increase
- half-life ([4]; human, plasma, iv): ~4 h
- Cmax ([6]; intravenous): ≥ 10.5 ng/mL
- Cmax [6]: 10.5 ng/mL
- Cmax ([10]; in vivo, intravenous): ≥ 7.65 ng/mL
- Cmax ([10]; plasma): 7.6 ng/mL
SMILES: CCOCc1nc2c(N)nc3ccccc3c2n1CC(C)(C)O [Compound A, 1-[4-amino-2-(ethoxymethyl)imidazo[4,5-c]quinolin-1-yl]-2-methylpropan-2-ol]
- patients with clinical benefit (advanced solid cancers [1]; high AUC group (above 3.42 ng/mL*Day), 14 patients): 50%
- patients with clinical benefit (advanced solid cancers [1]; high Cmax group (above 8.38 ng/mL), 15 patients): 47%
- patients with clinical benefit (advanced solid cancers [1]; low AUC group (below 3.42 ng/mL*Day), 18 patients): 11%
- patients with clinical benefit (advanced solid cancers [1]; low Cmax group (below 8.38 ng/mL), 17 patients): 12%
- mean IP-10 induction level from baseline (IP-10; high AUC group (AUC above 2.09 ng/mL*Day)): 27.2 fold
- mean IP-10 induction level from baseline (IP-10; high Cmax group (Cmax above 9.4 ng/mL)): 31.9 fold
- mean IP-10 induction level from baseline (IP-10; low AUC group (AUC below 2.09 ng/mL*Day)): 3.68 fold
- mean IP-10 induction level from baseline (IP-10; low Cmax group (Cmax below 9.4 ng/mL)): 5.09 fold
- effect on blood IP-10 levels (IP-10; monotherapy, FIG. 2A): significantly increased
- effect on blood IFN-γ levels (IFN-γ): significantly increased
- patients with clinical benefit (advanced solid cancers [5]; high AUC group (above 2.14 ng/mL*Day), 10 patients): 50%
- patients with clinical benefit (advanced solid cancers [5]; high Cmax group (above 10.5 ng/mL), 10 patients): 40%
- patients with clinical benefit (advanced solid cancers [5]; low AUC group (below 2.14 ng/mL*Day), 15 patients): 20%
- patients with clinical benefit (advanced solid cancers [5]; low Cmax group (below 10.5 ng/mL), 15 patients): 27%
- patients with clinical benefit (irPR or irSD>18 weeks) ([7]; high AUC group (above 2.09 ng/mL*Day)): 7 patients
- patients with clinical benefit (irPR or irSD>18 weeks) ([7]; high Cmax group (above 9.4 ng/mL)): 7 patients
- partial response [PR], number of subjects ([7]; irRECIST, best response): 2
- stable disease [SD], number of subjects ([7]; irRECIST, best response): 18
- disease control rate ([7]; irRECIST, partial response + stable disease): 63%
- patients with clinical benefit (irPR or irSD>18 weeks) ([7]; low AUC group (below 2.09 ng/mL*Day)): two
- patients with clinical benefit (irPR or irSD>18 weeks) ([7]; low Cmax group (below 9.4 ng/mL)): two
- progressive disease (PD) as best response ([7]; monotherapy): 38%
- progressive disease (PD) as best response, number ([7]; monotherapy): 12 subjects
- subjects with prolonged disease control (study duration >18 weeks) ([7]; monotherapy): 22%
- subjects with prolonged disease control (study duration >18 weeks), number ([7]; monotherapy): 7 subjects
- longest study duration ([7]; one subject on monotherapy): 68 weeks
- dose dependence of toxicity ([8]; 0.30-0.90 mg/m^2): no apparent dose-dependent increase in toxicity
- Grade 1 AE, subjects (%) [8, 11]: 4 (24%)
- Grade 2 AE, subjects (%) [8, 11]: 7 (41%)
- Grade 3 AE, subjects (%) [8, 11]: 2 (12%)
- No AE, subjects (%) [8, 11]: 4 (24%)
- Grade 1 AE, subjects (%) [8, 12]: 6 (32%)
- Grade 2 AE, subjects (%) [8, 12]: 5 (26%)
- Grade 3 AE, subjects (%) [8, 12]: 1 (5%)
- No AE, subjects (%) [8, 12]: 7 (37%)
- Grade 4 or 5 adverse events ([8]; monotherapy, 36 subjects): no Grade 4 or 5 adverse events
- overall tolerability ([8]; monotherapy, 36 subjects): well-tolerated
- subjects without any drug-related AE ([8]; monotherapy, of 36 subjects): 31%
- subjects without any drug-related AE, number ([8]; monotherapy, of 36 subjects): 11
- patients with clinical benefit (advanced solid cancers [9]; high AUC group (above 2.19 ng/mL*Day), 15 patients): 47%
- patients with clinical benefit (advanced solid cancers [9]; high Cmax group (above 7.65 ng/mL), 16 patients): 44%
- patients with clinical benefit (advanced solid cancers [9]; low AUC group (below 2.19 ng/mL*Day), 11 patients): 27%
- patients with clinical benefit (advanced solid cancers [9]; low Cmax group (below 7.65 ng/mL), 10 patients): 30%
